From PMC10747034 (Tropical Medicine and Infectious Disease, 2023)
Values joined by “and” are separate entries in the source; they are usually repeats but may differ in a detail not shown here. Equal values may be shown once. “Also recorded” adds a separate entry of the source. Read-outs that look alike come from different tables or passages of the source.

Legend:
[1] = tested on: Toxoplasma gondii tachyzoites of RH strain; experiment: Plaque assay (7 days) in NHDF monolayers infected with T. gondii; assay type: cell-based; conditions: 7 days of treatment, two independent experiments
Protocol: After NHDF reached confluency, each well was replaced with fresh medium containing one compound at a concentration of 1 µM, and then infected with 1000 newly egressed tachyzoites from RH strain [29]. Screening at 1 μM is recommended by MMV. As a control, infected cells were incubated with complete medium and 0.01% DMSO [29]. The plates were then kept in an incubator at 37 °C in a humid atmosphere with 5% CO2 for seven days. After this time, cultures were fixed with 70% ethanol and stained with crystal violet to observe the plates.
For that, 12-well plates containing a monolayer of NHDF were infected with 600 tachyzoites of the RH strain of T. gondii and treated with different concentrations for seven days. IC50s of compounds were calculated using GraphPad Prism 8.0 software.
Data were analyzed using GraphPad Prim 8.0 software. IC50 and CC50 calculations were performed by fitting the values of proliferation/viability in percentage to a non-linear curve followed by dose–response inhibition analysis through log(inhibitor) vs. normalized response.

[2] = tested on: Toxoplasma gondii tachyzoites of RH strain; experiment: Forty-eight-hour antiproliferative assay; assay type: cell-based; conditions: 48 h; for inhibition at 0.25 µM / inhibition at 1 µM: read-out: Inhibition of parasite proliferation
Protocol: NDHF cell monolayers were plated in a 24-well tissue plate containing coverslips, and after confluency was reached, cells were infected with a ratio of 5:1 parasite/host cells with freshly egressed RH strain tachyzoites for two hours. Then, cells were washed twice with phosphate-buffered saline, pH 7.4 (PBS), to remove non-invaded parasites and incubated with a complete medium for two hours more. After this time, infected cells were treated for 48 h with different concentrations of selected compounds, based on the IC50 obtained through plaque assay. At the end of the experiment, the cells were washed with PBS, stained with Bouin for 10 min, washed with 70% alcohol, and stained with solutions 2 and 3 of the Fast Panoptic kit for 60 and 10 s, respectively. Two hundred infected cells were quantified per slide using the 100× objective of a Leica DM500 optical microscope, stratifying the number of infected and non-infected cells and the amount of tachyzoite in each infected cell. The proliferation index is the ratio of the product of the total amount of tachyzoites and the percentage of infected cells by the total number of cells.

NHDF cells = experiment: Cytotoxicity assay (MTS, 7 days); assay type: cell-based, Human; conditions: for CC50: MTS, read-out: Cytotoxicity against NHDF (7 Days) CC50
Protocol: (§1) For that, 96-well tissue plates containing NHDF cells were treated with different concentrations of compounds up to 10 µM for seven days. Control cells were incubated with 0.5% DMSO. At the end of the treatment, cell viability was then analyzed through the colorimetric method of MTS (Promega, Madison, WI, USA). […] Data were analyzed using GraphPad Prim 8.0 software. IC50 and CC50 calculations were performed by fitting the values of proliferation/viability in percentage to a non-linear curve followed by dose–response inhibition analysis through log(inhibitor) vs. normalized response.

[3] = Cytotoxicity assay (MTS, 7 days); assay type: cell-based, Human; conditions: human, NHDF cells, MTS, read-out: Cytotoxicity against NHDF (7 Days) CC50
Protocol: as §1

[4] = tested on: T. gondii tachyzoites (apicoplast); experiment: Immunofluorescence assay of apicoplast loss (anti-CPN60); assay type: cell-based, Toxoplasma gondii; conditions: 1 µM, 24 h
Protocol: Anti-CPN60 (kindly provided by Dr. Boris […], University of Georgia, USA) was used to label the apicoplast luminal protein CPN60 at a dilution of 1:2000. DAPI (5 μg/mL; Sigma-Aldrich) was used to label the DNA. After labeling, the coverslips were mounted onto slides using Prolong gold (Life Technologies, Eugene, OR, USA), and samples were examined on an Invitrogen EVOS fluorescence microscope.

T. gondii tachyzoites = experiment: Ultrastructural analysis through transmission electron microscopy; assay type: cell-based, Toxoplasma gondii; conditions: 48 h
Protocol: T-25 cm^2 flasks for cell culture with confluent monolayers of NHDF were infected with freshly egressed tachyzoite in a ratio of 10:1 parasite per cell for 2 h of interaction. The flasks were washed and fresh RPMI was added for another two hours. After this, the compounds were added and infected cells were treated for 48 h. The sample fixation and processing for microscopy were performed as previously described.

[5] = tested on: Toxoplasma gondii tachyzoites of RH strain; experiment: Post-treatment recovery (washout) assay; assay type: cell-based; conditions: 3 days of treatment, 7 days recovery without drug; 0.001 to 1 µM tested
Protocol: NHDF monolayers in 12-well plates were infected with 5000 newly egressed tachyzoites from RH strain and then treated for 3 days with drug concentrations of 0.001 to 1 µM. After treatment, the medium with drugs was removed, and the cells were washed twice and incubated with a fresh medium without drugs for an additional 7 days to allow the remaining parasites (if still viable after treatment) to grow. The plates were then kept in an incubator at 37 °C in a humid atmosphere with 5% CO2 throughout the treatment.

Balamuthia Mandrillaris = tested on: Balamuthia Mandrillaris; set-up: method as in PMID 32560115; conditions: read-out: IC50 against Balamuthia Mandrillaris; cited from earlier work
T. gondii Me49 strain = conditions: read-out: IC50 against T. gondii Me49 strain; cited from earlier work
T. gondii RH strain = conditions: read-out: IC50 against T. gondii RH strain; cited from earlier work
[6] = concentrations up to 10 µM, two independent experiments
[7] = ND = 100% viability up to 10 µM

Compound | IC50 [1] | CC50 (NHDF cells; [6]) [nM] | IC50 ([1]; Toxoplasma gondii, NHDF, 168 h) [nM] | SI (Selectivity Index, CC50 NHDF cells/IC50 T. gondii) (NHDF cells) | CC50 at 7 days [3, 6] [nM] | further results
COc1ccc2sc3c(c2c1)NC(C)CNC3=O (stereo not shown) [MMV1782115] | ≤ 200 nM and 161 nM | 9430 | – | – | – | Inhibition of parasite proliferation ([2]; 1 µM): more than 60%
CCCCC(CC)CNC(=N)NC(=N)NCCCCCCNC(=N)NC(=N)NCC(CC)CCCC (stereo not shown) [Alexidine] | – | – | 272 ± 38.4 | 6 | 1630 | inhibition at 0.25 µM ([2]; Toxoplasma gondii, 0.25 µM): ~60%
Cc1cc(C2CCCCC2)n(O)c(=O)c1 [Ciclopirox] | – | – | 497 ± 18.1 | 8 | 4000 | –
CCC[C@@H]1C[C@@H](C(=O)N[C@@H]([C@H]2O[C@H](SC)[C@H](O)[C@@H](O)[C@H]2O)[C@H](C)Cl)N(C)C1 [Clindamycin] | – | – | – | – | – | Frequency of vacuoles (4 or 8 parasites) with at least one parasite presenting apicoplast loss [4]: higher than 30%
CC1=C(/C=C/C(C)=C/C=C/C(C)=C/C(=O)Nc2ccc(O)cc2)C(C)(C)CCC1 [Fenretinide] | – | – | 918 ± 29.1 | 29 | 26700 | –
COc1cc(NS(=O)(=O)c2ccc(C)cc2)c2ncccc2c1 [DNDI1417411] | 485 ± 43.8 nM | 14500 | – | – | – | Inhibition of parasite proliferation ([2]; 1 µM): more than 60%
O=C(/C=C\n1cnc(-c2cc(C(F)(F)F)cc(C(F)(F)F)c2)n1)NNc1ccccn1 [Verdinexor] | 70 ± 24.4 nM | – | – | – | 2860 | IC50 ([1]; listed as verdinexor): ≤ 200 nM; inhibition at 0.25 µM ([2]; Toxoplasma gondii, 0.25 µM): > 80%; inhibition at 1 µM ([2]; Toxoplasma gondii, 1 µM): 99%; Ultrastructural alterations on tachyzoites (TEM) (T. gondii tachyzoites; 0.25 µM): caused a drastic effect on the division of the parasite; also recorded: caused extensive vacuolization; also recorded: induced mitochondrial alterations
COc1cc(C)c2c(Oc3cccc(C(F)(F)F)c3)c(OC)cc(NC(C)CCCN)c2n1 (stereo not shown) [Tafenoquine] | – | – | 896.9 ± 0.1 | 18 | 16300 | –
C=C[C@]1(C)C[C@@H](OC(=O)CS[C@@H]2C[C@H]3CC[C@@H](C2)N3C)[C@]2(C)[C@H](C)CC[C@]3(CCC(=O)[C@H]32)[C@@H](C)[C@@H]1O [Retapamulin] | < 100 nM | – | – | 270 | 9980 | Inhibition of parasite proliferation ([2]; 1 µM): more than 50%; inhibition at 1 µM ([2]; Toxoplasma gondii, 1 µM): > 60%; Frequency of vacuoles (4 or 8 parasites) with at least one parasite presenting apicoplast loss [4]: higher than 30%
COc1cc(NCc2ccc3nc(N)nc(N)c3c2C)cc(OC)c1OC [Trimetrexate] | – | – | – | 3046 | 11900 | inhibition at 0.015 µM ([2]; Toxoplasma gondii, 15 nM, read-out: Inhibition of tachyzoite proliferation): > 90%; Inhibition of T. gondii proliferation ([2]; concentrations close to 2 nM): approximately 50%; Concentrations at which monolayer lysis and plaque areas were seen after washout [5]: 0.001 to 0.1 µM
CCc1nc(N)nc(N)c1-c1ccc(Cl)cc1 [PYR, pyrimethamine] | – | – | – | – | – | Concentration that abolished parasite proliferation recovery (no plaques) [5]: > 1 µM; Concentrations at which monolayer lysis and plaque areas were seen after washout [5]: all concentrations
O=S(=O)(Nc1cccc2cccnc12)c1ccccc1 [MMV1578890] | 1100 ± 0.1 nM | 10300 | – | – | – | –
Fc1ccc(-c2nc(-c3c[nH]c4ccc(Br)cc34)[nH]c2-c2ccc(F)cc2)cc1 [MMV1593537] | 940 ± 38.6 nM | 5660 | – | – | – | –
Cc1nc2ccc(Oc3ccccc3)cc2c2c1CCN2CCc1ccccc1 [MMV1634399] | 920.3 ± 0.1 nM | 24100 | – | – | – | –
Oc1c(C(Nc2nc3ccccc3s2)c2ccc(OC(F)F)cc2)ccc2cccnc12 (stereo not shown) [MMV019724] | ≤ 200 nM and 109 nM | 2500 | – | – | – | Inhibition of parasite proliferation ([2]; 0.25 µM): more than 80%; Inhibition of parasite proliferation ([2]; 1 µM): 99%; Ultrastructural alterations on tachyzoites (TEM) (T. gondii tachyzoites; 0.25 µM): affected the parasite cell division process; also recorded: induced a lytic effect in the parasite
CC[C@H]1OC(=O)[C@H](C)[C@@H](O[C@H]2C[C@@](C)(OC)[C@@H](O)[C@H](C)O2)[C@H](C)[C@@H](O[C@@H]2O[C@H](C)C[C@H](N(C)C)[C@H]2O)[C@](C)(O)C[C@@H](C)C(=O)[C@H](C)[C@@H](O)[C@]1(C)O [Erythromycin] | 131 ± 15.8 nM | – | ≤ 200 | 91 | 11900 | –
Nc1nc(Nc2ccc3nc(-c4ccc(F)cc4)cc(N)c3c2)cc(-c2ccccc2)n1 [MMV1593541] | – | 2540 | – | – | – | Inhibition of T. gondii proliferation ([2]; 125 nM): more than 50%; Inhibition of parasite proliferation ([2]; 0.25 µM): around 60%; Ultrastructural alterations on tachyzoites (TEM) (T. gondii tachyzoites; 0.5 µM): induced the formation of extensive cytoplasm vacuolization
CCc1nc(N)nc(N)c1C#CC(C)c1cc(OC)cc(-c2ccncc2)c1 (stereo not shown) [MMV1580844] | – | 11200 | – | – | – | Inhibition of tachyzoite proliferation ([2]; 7 nM): more than 90%; Inhibition of T. gondii proliferation ([2]; concentrations close to 2 nM): approximately 50%; Concentrations at which monolayer lysis and plaque areas were seen after washout [5]: 0.001 to 0.01 µM; Ultrastructural alterations on tachyzoites (TEM) (T. gondii tachyzoites; 3 nM): caused parasite lysis; also recorded: disrupted the parasite division process
Oc1cccc(C(Nc2nccs2)c2ccc3cccnc3c2O)c1 (stereo not shown) [MMV642550] | 320 ± 17 nM | 6730 | – | – | – | Inhibition of T. gondii proliferation ([2]; 0.5 µM): around 75%; Ultrastructural alterations on tachyzoites (TEM) (T. gondii tachyzoites; 1 µM): affected the Golgi complex (GC) (Figure 4E) and induced extensive vacuolization inside the parasite body
Cn1cc(NC(=O)c2cc(NC(=O)c3ccc(/C=C/c4cnc5ccccc5c4)cc3)cn2C)cc1C(=O)NCCN1CCOCC1 [MMV1634391] | – | – | – | – | – | Frequency of vacuoles (4 or 8 parasites) with at least one parasite presenting apicoplast loss [4]: higher than 30%; CC50 (NHDF cells; [7]): > 10000 nM
CN1CCN(Cc2ccc(-c3cnc4[nH]cc(-c5ccc6[nH]ccc6c5)c4c3)cc2)CC1 [URMC-099-C] | – | – | – | – | – | inhibition at 1 µM ([2]; Toxoplasma gondii, 1 µM): > 60%; IC50 (Balamuthia Mandrillaris): 5350 nM; Ultrastructural alterations on tachyzoites (TEM) (T. gondii tachyzoites; 1 µM): induced an extensive vacuolization (asterisks) in T. gondii and myelin-like bodies; CC50 at 7 days [3, 7]: > 10000 nM
OCCC#Cc1nc(-c2ccc(F)cc2)c(-c2ccncc2)n1CCCc1ccccc1 [RWJ-67657] | – | – | 412 ± 21.7 | 31 | 12600 | Inhibition of parasite proliferation ([2]; 1 µM): 59.5%; inhibition at 1 µM ([2]; Toxoplasma gondii, 1 µM): > 60%; Ultrastructural alterations on tachyzoites (TEM) (T. gondii tachyzoites; 1 µM): induced an extensive vacuolization (asterisks) in T. gondii and myelin-like bodies; IC50 (T. gondii Me49 strain): 800 nM; IC50 (T. gondii RH strain): 5000 nM
NC(=S)N/N=C/c1ncccc1N [Triapine] | – | – | 717.7 ± 0.1 | 4 | 2800 | inhibition at 1 µM ([2]; Toxoplasma gondii, 1 µM): > 60%
